Biological target: T1, bacteriophage T4 DNA polymerase (Enterobacteria phage T4, UniProt P04415)
T1 construct: made in house
T1 sequence (P04415 1-898): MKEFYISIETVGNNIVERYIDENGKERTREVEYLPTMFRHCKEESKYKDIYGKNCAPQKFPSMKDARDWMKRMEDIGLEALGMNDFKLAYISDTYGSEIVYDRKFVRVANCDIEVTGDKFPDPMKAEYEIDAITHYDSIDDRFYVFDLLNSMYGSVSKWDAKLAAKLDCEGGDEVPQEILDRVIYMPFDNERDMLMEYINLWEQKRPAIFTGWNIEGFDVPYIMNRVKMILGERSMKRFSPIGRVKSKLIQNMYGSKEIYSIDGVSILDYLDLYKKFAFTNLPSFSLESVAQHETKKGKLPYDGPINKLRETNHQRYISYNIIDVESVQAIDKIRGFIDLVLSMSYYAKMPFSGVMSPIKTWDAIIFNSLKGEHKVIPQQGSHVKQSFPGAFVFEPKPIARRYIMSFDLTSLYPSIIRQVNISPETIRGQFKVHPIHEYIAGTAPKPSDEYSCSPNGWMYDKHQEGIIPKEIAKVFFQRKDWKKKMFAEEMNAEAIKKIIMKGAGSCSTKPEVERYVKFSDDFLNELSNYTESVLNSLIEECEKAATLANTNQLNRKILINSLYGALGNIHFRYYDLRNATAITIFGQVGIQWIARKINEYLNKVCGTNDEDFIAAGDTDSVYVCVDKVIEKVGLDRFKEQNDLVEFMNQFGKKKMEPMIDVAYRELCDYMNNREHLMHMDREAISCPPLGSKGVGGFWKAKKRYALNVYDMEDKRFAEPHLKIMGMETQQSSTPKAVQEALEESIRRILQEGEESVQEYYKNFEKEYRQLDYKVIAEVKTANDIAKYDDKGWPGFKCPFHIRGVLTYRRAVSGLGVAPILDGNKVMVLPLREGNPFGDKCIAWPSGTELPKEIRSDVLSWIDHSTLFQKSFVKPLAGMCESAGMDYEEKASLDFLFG
Experiment: Counter-screen against bacteriophage T4 DNA polymerase
Type: biochemical
Settings: for % inhibition T4 10' 2.5 / % inhibition T4 10' 5 / % inhibition T4 10' 10 / % inhibition T4 10' 20 / % inhibition T4 10' 40 / % inhibition T4 10' 80: read at 10'; for % inhibition T4 10' 2.5 / % inhibition T4 70' 2.5 / % inhibition T4 130' 2.5 / % inhibition T4 40' 2.5 / % inhibition T4 90' 2.5 / % inhibition T4 180' 2.5: concentration 2.5; for % inhibition T4 70' 2.5 / % inhibition T4 70' 5 / % inhibition T4 70' 10 / % inhibition T4 70' 20 / % inhibition T4 70' 40 / % inhibition T4 70' 80: read at 70'; for % inhibition T4 130' 2.5 / % inhibition T4 130' 5 / % inhibition T4 130' 10 / % inhibition T4 130' 20 / % inhibition T4 130' 40 / % inhibition T4 130' 80: read at 130'; for % inhibition T4 40' 2.5 / % inhibition T4 40' 5 / % inhibition T4 40' 10 / % inhibition T4 40' 20 / % inhibition T4 40' 40 / % inhibition T4 40' 80: read at 40'; for % inhibition T4 90' 2.5 / % inhibition T4 90' 5 / % inhibition T4 90' 10 / % inhibition T4 90' 20 / % inhibition T4 90' 40 / % inhibition T4 90' 80: read at 90'; for % inhibition T4 180' 2.5 / % inhibition T4 180' 5 / % inhibition T4 180' 10 / % inhibition T4 180' 20 / % inhibition T4 180' 40 / % inhibition T4 180' 80: read at 180'
Description: Codon-optimized, exonuclease-deficient Pf-apPOL was overexpressed in E. coli BL21 (DE3) and purified as described. The protein was dialysed against two, 1-liter changes of 20 mM Tris-HCl (pH 8.0), 400 mM NaCl, and 20% glycerol. Plasmodium bergei and Babesia bovis apPOLs (Pb-apPOL and Bb-apPOL, respectively) were codon-optimized, expressed, and purified as for Pf-apPOL[15]. Bacteriophage T4 DNA polymerase was purified as described. The DNA oligonucleotides used to make the high-throughput substrate were obtained from Integrated DNA Technologies. Deoxynucleotides were purchased from Strategene. All other materials came from Fisher Scientific.
Each compound was tested in a dose-response format to determine IC50 values. […] T4 DNA polymerase can be produced in large quantities, and is in the same family (B-family) as the replicative human DNA polymerases (α, δ, and ε)[20].

CN(C)S(=O)(=O)Oc1ccc(-c2noc(-c3ccc(Oc4cc(Cl)cc(Cl)c4)o3)n2)cc1 [KU0263859]
% inhibition T4 10' (DRC-2, concentration 5): 17%
% inhibition T4 10' (DRC-2, concentration 10): 35%
% inhibition T4 10' (DRC-2, concentration 20): 35%
% inhibition T4 40' (DRC-2, concentration 5): 17%
% inhibition T4 40' (DRC-2, concentration 20): 38%
% inhibition T4 40' (DRC-2, concentration 40): 43%
% inhibition T4 40' (DRC-2, concentration 80): 43%
% inhibition T4 90' (DRC-2, 90', concentration 20): 35%
% inhibition T4 180' (DRC-2, concentration 40): 38%
% inhibition T4 180' (DRC-2, concentration 80): 43%

Cc1nc(C)c2c(n1)N(CC1CCCCC1)C(=O)CC2 [KU0218606]
% inhibition T4 10' 2.5 (DRC-1): -4.605%
% inhibition T4 10' 5 (DRC-1, concentration 5): -3.989%
% inhibition T4 10' 10 (DRC-1, concentration 10): -2.764%
% inhibition T4 10' 20 (DRC-1, concentration 20): -3.758%
% inhibition T4 10' 40 (DRC-1, concentration 40): -2.983%
% inhibition T4 10' 80 (DRC-1, concentration 80): -2.366%
% inhibition T4 70' 2.5 (DRC-1): -6.824%
% inhibition T4 70' 5 (DRC-1, concentration 5): -8.391%
% inhibition T4 70' 10 (DRC-1, concentration 10): -4.959%
% inhibition T4 70' 20 (DRC-1, concentration 20): -8.03%
% inhibition T4 70' 40 (DRC-1, concentration 40): -3.675%
% inhibition T4 70' 80 (DRC-1, concentration 80): -5.307%
% inhibition T4 130' 2.5 (DRC-1): -8.748%
% inhibition T4 130' 5 (DRC-1, concentration 5): -10.3586%
% inhibition T4 130' 10 (DRC-1, concentration 10): -7.013%
% inhibition T4 130' 20 (DRC-1, concentration 20): -9.978%
% inhibition T4 130' 40 (DRC-1, concentration 40): -5.652%
% inhibition T4 130' 80 (DRC-1, concentration 80): -8.474%
% inhibition T4 10' 2.5 (DRC-2): 4%
% inhibition T4 10' 5 (DRC-2, concentration 5): 4.39%
% inhibition T4 10' 10 (DRC-2, concentration 10): 6%
% inhibition T4 10' 20 (DRC-2, concentration 20): 5.27%
% inhibition T4 10' 40 (DRC-2, concentration 40): 12%
% inhibition T4 10' 80 (DRC-2, concentration 80): 12%
% inhibition T4 40' 2.5 (DRC-2): 4%
% inhibition T4 40' 5 (DRC-2, concentration 5): 4.39%
% inhibition T4 40' 10 (DRC-2, concentration 10): 6%
% inhibition T4 40' 20 (DRC-2, concentration 20): 5.27%
% inhibition T4 40' 40 (DRC-2, concentration 40): 12%
% inhibition T4 40' 80 (DRC-2, concentration 80): 12%
% inhibition T4 90' 2.5 (DRC-2): 4%
% inhibition T4 90' 5 (DRC-2, concentration 5): 5%
% inhibition T4 90' 10 (DRC-2, concentration 10): 7%
% inhibition T4 90' 20 (DRC-2, concentration 20): 7%
% inhibition T4 90' 40 (DRC-2, concentration 40): 11%
% inhibition T4 90' 80 (DRC-2, concentration 80): 11%
% inhibition T4 180' 2.5 (DRC-2): -0.169%
% inhibition T4 180' 5 (DRC-2, concentration 5): 0.674%
% inhibition T4 180' 10 (DRC-2, concentration 10): 3%
% inhibition T4 180' 20 (DRC-2, concentration 20): 2%
% inhibition T4 180' 40 (DRC-2, concentration 40): 8%
% inhibition T4 180' 80 (DRC-2, concentration 80): 8%

O=C1CSC2=NC3=C(CCc4ccccc43)C(c3cccs3)N12 (stereo not shown) [Molecule 59, O=C1CSC2=NC3=C(C(N12)c1cccs1)CCc1c3cccc1]
% inhibition T4 10' 2.5 (DRC-1): 10.0127%
% inhibition T4 10' 5 (DRC-1, concentration 5): 9.284%
% inhibition T4 10' 10 (DRC-1, concentration 10): 14.9012%
% inhibition T4 10' 20 (DRC-1, concentration 20): 17.5613%
% inhibition T4 10' 40 (DRC-1, concentration 40): 23.9437%
% inhibition T4 10' 80 (DRC-1, concentration 80): 22.8817%
% inhibition T4 70' 2.5 (DRC-1): 9.951%
% inhibition T4 70' 5 (DRC-1, concentration 5): 10.6029%
% inhibition T4 70' 10 (DRC-1, concentration 10): 14.1389%
% inhibition T4 70' 20 (DRC-1, concentration 20): 13.8668%
% inhibition T4 70' 40 (DRC-1, concentration 40): 19.0347%
% inhibition T4 70' 80 (DRC-1, concentration 80): 18.0959%
% inhibition T4 130' 2.5 (DRC-1): 7.352%
% inhibition T4 130' 5 (DRC-1, concentration 5): 7.713%
% inhibition T4 130' 10 (DRC-1, concentration 10): 10.7499%
% inhibition T4 130' 20 (DRC-1, concentration 20): 9.8688%
% inhibition T4 130' 40 (DRC-1, concentration 40): 15.3496%
% inhibition T4 130' 80 (DRC-1, concentration 80): 16.7896%
% inhibition T4 10' 2.5 (DRC-2): 31%
% inhibition T4 10' 5 (DRC-2, concentration 5): 18%
% inhibition T4 10' 10 (DRC-2, concentration 10): 6.37%
% inhibition T4 10' 20 (DRC-2, concentration 20): 8%
% inhibition T4 10' 40 (DRC-2, concentration 40): 6%
% inhibition T4 10' 80 (DRC-2, concentration 80): 11%
% inhibition T4 40' 2.5 (DRC-2): 31%
% inhibition T4 40' 5 (DRC-2, concentration 5): 18%
% inhibition T4 40' 10 (DRC-2, concentration 10): 6.37%
% inhibition T4 40' 20 (DRC-2, concentration 20): 8%
% inhibition T4 40' 40 (DRC-2, concentration 40): 6%
% inhibition T4 40' 80 (DRC-2, concentration 80): 11%
% inhibition T4 90' 2.5 (DRC-2): 30%
% inhibition T4 90' 5 (DRC-2, concentration 5): 18%
% inhibition T4 90' 10 (DRC-2, concentration 10): 8%
% inhibition T4 90' 20 (DRC-2, concentration 20): 8%
% inhibition T4 90' 40 (DRC-2, concentration 40): 6.37%
% inhibition T4 90' 80 (DRC-2, concentration 80): 11%
% inhibition T4 180' 2.5 (DRC-2): 24%
% inhibition T4 180' 5 (DRC-2, concentration 5): 15%
% inhibition T4 180' 10 (DRC-2, concentration 10): 5%
% inhibition T4 180' 20 (DRC-2, concentration 20): 4%
% inhibition T4 180' 40 (DRC-2, concentration 40): 5.53%
% inhibition T4 180' 80 (DRC-2, concentration 80): 9%

Source: PMC9090415, “Discovery of small molecule inhibitors of Plasmodium falciparum apicoplast DNA polymerase” (Journal of Enzyme Inhibition and Medicinal Chemistry, 2022)
